“Also recorded” adds a separate entry of the source.

For assay [1], the system named is carious tissue in caries infected tooth slices. The assay can be described thus: Staining of caries infected tooth slices with colours, then washing with MQ water, NaCl and NaOH. To be noted: for staining of the tooth slice after NaCl and NaOH (Day 4): after NaCl 1 M and NaOH 0.5 M over night, visible light, UV or fluorescence microscopy; for kind of binding to carious tissue in infected teeth (conclusion): concluded from staining after NaCl and NaOH washes.
Protocol: This experiment aimed to see if the added colours SEEK, Acid red 1, Lucifer Yellow, a combination of Lucifer Yellow and Acid red 1, or 5-(2-2-hydrazinyl-2-oxoethylthio)acetamido)-2-(3-hydroxy-6-oxo-6H-xanthen-9-yl)benzoic acid, Alexa Fluor® 594 and Alexa 350 bind to the surface of caries or not, after excavation down to a clinically caries free denoted surface. Experiments were performed during 4 days.
Whole caries infected tooth was added to an ortho acryl gel, which after hardening was used as a holder prior to sawing (saw of brand Zaw Micro Tone, German). Slices, having a thickness of 150 μm, were left over night in each colour to be tested (Day one). On the second day, the colours were washed out by rinsing the slices with MQ water and the teeth sections were photographed under either a microscope (6.7×; visible light), in UV (no microscope) or under a fluorescence microscope (100×). Thereafter, an aqueous salt solution (NaCl, 1 M) was added to the slices and incubated over night. On the third day the slices were washed with MQ water and thereafter the same detection procedures were used as described above. Finally the tooth slices were exposed to an aqueous solution of NaOH (0.5 M) over night. The washing and detection path were then repeated as described previously (Day 4).

The test system of assay [2] is healthy dentin tissue. Put plainly: FTIR of healthy dentin tissue treated with Lucifer Yellow. The arrangement: species or system human. The note with it: Lucifer Yellow 13 mM aqueous, overnight, no peak at 1740 cm−1 in any sample. From the text:
(§1) Extracted permanent human teeth with no previous dental restorations were selected due to their severe carious tissue status and analysed with FTIR within one week after extraction. The outermost part of the carious dental lesions was removed. The remaining dental carious tissue was divided into two layers; one outer layer with discoloured, soft and infected dental carious tissue and one inner layer that was excavated down to the observed uncoloured hard surface of the remaining healthy dentin controlled by tactile procedures.
(§2) Healthy dentin tissue and carious dentin tissue from the innermost layer were collected. This healthy dentin tissue sample and carious dentin tissue sample were then each divided into three samples.
The healthy dentin tissue sample (26 mg) was divided and treated as follows. […] Fluorescence of bounded hydrazine derivate Lucifer Yellow was checked by a UV lamp. […] The third sample, hereinafter denominated sample S3, (7 mg) and the last procedure was treated with NaBH4 (0.5 M in ethanol) and washed with concentrated ethanol to reduce aldehydes and ketones before the addition of an aqueous solution of the hydrazine derivate Lucifer Yellow (13 mM), repeated rinsing with purified water before dried and analysed.
(§3) Thus, in total 6 samples (three from the healthy dentin tissue and three from the carious dentin tissue) were analysed with FTIR within one week after extraction. […]

For assay [3], the system named is carious dentin tissue. The assay can be described thus: FTIR of carious dentin tissue treated with Lucifer Yellow. On the set-up: species or system human.
Excerpt: as §1, §2
The healthy dentin tissue sample (26 mg) was divided and treated as follows. […] Fluorescence of bounded hydrazine derivate Lucifer Yellow was checked by a UV lamp. […] The third sample, hereinafter denominated sample S3, (7 mg) and the last procedure was treated with NaBH4 (0.5 M in ethanol) and washed with concentrated ethanol to reduce aldehydes and ketones before the addition of an aqueous solution of the hydrazine derivate Lucifer Yellow (13 mM), repeated rinsing with purified water before dried and analysed. […]
as §3

For assay [4], the system named is carious dentin tissue. The assay can be described thus: TOF-SIMS of carious dentin tissue treated with Lucifer Yellow. How it is done:
FTIR-ATR and TOF-SIMS analyses were performed on a sample group consisting of carious tissue inner most layers selected and estimated with an exactness of a working dentist. Samples were pooled from 4-6 teeth of inner layer of carious tissue (37 mg). The pooled sample was divided into two subgroups where one was exposed to the hydrazine derivate Lucifer Yellow and further analysed with TOF-SIMS and the other only analysed with FTIR-ATR. An aqueous solution of the hydrazine derivate Lucifer Yellow (1.8 mM) was added to the inner layer carious tissue (19 mg) and after 1 hour exposure washed with an aqueous solution of NaOH (0.5 M) and purified water before dried over vacuum. Events prolonged under a couple of hours from extraction to excavation to the drying and milling of the substances. Both FTIR-ATR and TOF-SIMS followed. FTIR-ATR was performed as described in Example 3 above. […] Each sample was attached to double side tape and analysed with a TOF-SIMS instrument (TOF-SIMS IV, CAMECA/IONTOF, GmbH, Germany). Positive secondary ion mass spectra were recorded from different areas of the sample at a size of […] and separated in a mass analyser and next compared with known mass spectra from the Ion Spec application (IonTof, GmbH, Germany, ver. 4.1) linked with the TOF-SIMS instrument. Negative secondary ion mass spectra were also recorded but gave no further information. […]

Assay [5] deals with healthy dentin tissue. Put plainly: TOF-SIMS of healthy dentin tissue treated with Lucifer Yellow. The note with it: positive mass spectra, treated similar to untreated.
Assay [6] deals with carious dentin tissue. The assay can be described thus: Rinsing of carious dentin tissue labelled with a dye.
Assay [7] has as its system carious dentin tissue of a pre molar tooth. Put plainly: Staining of a pre molar tooth cavity with Alexa 594 and removal with Carisolv and hand instrument. As for the experimental part: Carious dentin tissue of a pre molar tooth was treated with Carisolv® to obtain a cavity and subsequently stained with an aqueous solution of the hydrazine derivative Alexa 594.
The concentration of the aqueous solution of the hydrazine derivative Alexa 594 was 15-50 mM. […] Carisolv® was added to the cavity and excavation took place with a hand instrument from Mediteam Dental AB to reach a carious free level. […] A dentist performed tactile control of this surface and confirmed that the surface was free of caries. […] The slightly stained surface was subjected to treatment with Carisolv® followed by excavation with a hand instrument. […] It was concluded that a hydrazine derivative such as Alexa 594 can be used in combination with a chemical means for carious dentin tissue such as Carisolv® for selective detection and removal of carious dentin tissue.

For assay [8] the test system is unchanged. The assay can be described thus: Staining of a pre molar tooth with Alexa 594 and removal with a dentist's drill. To be noted: 15-50 mM aqueous solution, drilling and staining repeated several times. As for the experimental part:
Carious dentin tissue of a pre molar tooth stained with an aqueous solution of the hydrazine derivative Alexa 594 in a concentration of 15-50 mM was subjected to mechanical treatment by a dentist's drill until no staining could be visually detected. […] The stained surface was subjected to drilling until no staining could be visually detected. A dentist examined the surface visually and with a tactile instrument and concluded that the surface was free of caries. […] Again, drilling of the stained surface took place until no staining could be observed. […] Drilling and staining as described above in this example was repeated several times. […] It was concluded that selective detection and removal of carious dentin tissue using a hydrazine derivative in combination with a dentist's drill was not possible. […] This is in contrast to the successful selective detection and removal of carious dentin tissue using a hydrazine derivative in combination with a chemical means for treatment of carious dentin tissue as described in Example 5.

For `Cc1c(CC(=O)NN)c(=O)oc2cc(N)c(S(=O)(=O)O)cc12` [Alexa 350], in assay [1], the “staining of the tooth slice after NaCl and NaOH (Day 4)” value (shortened to “staining of the tooth slice … (Day 4)”) is “still contained colourants”; the “kind of binding to carious tissue in infected teeth (conclusion)” value (from here on “kind of binding to carious tissue”) was “bind irreversibly”.

`NNC(=O)NN1C(=O)c2cc(S(=O)(=O)O)cc3c(N)c(S(=O)(=O)O)cc(c23)C1=O` [Lucifer Yellow]: the “reaction with healthy dentin tissue” value in the assay on healthy dentin tissue [2] is “no reaction takes place”. Further, the “reaction with carious dentin tissue” value in the assay on carious dentin tissue [3] (FTIR, Lucifer Yellow 13 mM aqueous, overnight, peak at 1740 cm−1 no longer present) is reported as “reaction has taken place”. Further, the “selectivity of reaction, carious versus healthy dentin tissue (FTIR)” value with carious dentin tissue [3] (concluded from FTIR of samples S1-S6) was “selectively reacts with carious dentin tissue”. Moreover, the “bonding to carious dentin tissue (TOF-SIMS)” value in the assay with carious dentin tissue [4] (Lucifer Yellow 1.8 mM, 1 hour, washed with NaOH 0.5 M, positive spectra, repeated difference of 106 mass units) is reported as “covalently bound to the carious tissue”. Also, the “selectivity of reaction, carious versus healthy dentin tissue (TOF-SIMS)” value in the assay with carious dentin tissue [4] (concluded from TOF-SIMS spectra) is “selectively reacts with carious dentin tissue”. Moreover, the “reaction with healthy dentin (TOF-SIMS)” value in the assay with healthy dentin tissue [5] is on record as “did not react with healthy dentin”. In assay [1], the “staining of the tooth slice … (Day 4)” value was “still contained colourants”; the “kind of binding to carious tissue” value is “bind irreversibly”.

With `CC(=O)Nc1cc(S(=O)(=O)[O-])cc2cc(S(=O)(=O)[O-])c(/N=N/c3ccccc3)c(O)c12.[Na+].[Na+]` [Acid red 1, reference compound], the “effect of rinsing on dye bonded to carious dentin tissue” value with carious dentin tissue [6] is “release of the dye bonded to the carious dentine tissue”. For the same compound, in assay [1] (150 μm slices left over night in colour, rinsed with MQ water, NaCl 1 M over night), the “staining of the tooth slice after incubation with 1 M NaCl” value is “only little staining remained”. Moreover, in assay [1], the “staining of the tooth slice … (Day 4)” value was “no colouring of the slice treated with Acid red 1 could be detected using visible light and barely with microscope”; the “kind of binding to carious tissue” value is given as “binds in a reversible way”.

Take `NNC(=O)CSCC(=O)Nc1ccc(-c2c3ccc(=O)cc-3oc3cc(O)ccc23)c(C(=O)O)c1` [5-(2-2-hydrazinyl-2-oxoethylthio)acetamido)-2-(3-hydroxy-6-oxo-6H-xanthen-9-yl)benzoic acid]: in assay [1], the “staining of the tooth slice … (Day 4)” value is reported as “still contained colourants; also recorded: staining”; the “kind of binding to carious tissue” value is “bind irreversibly”.

As to “6-(2-carboxy-5-(hydrazinecarbonyl)phenyl)-1,2,2,10,10,11-hexamethyl-2,10-dihydro-1H-pyrano[3,2-g]diquinoline-11-ium-4,8-diyl)methanesulfonate [Alexa Fluor® 594]”, the “sensitivity of caries detection compared with tactile control by a dentist” value in assay [7] was “better and more sensitive method for detecting carious dentin tissue than tactile control”. Moreover, the “staining of the cavity, first staining” value in assay [7] (15-50 mM aqueous solution, cavity obtained with Carisolv) is “intense dark bluish colour”. Besides, the “staining of the surface after second Carisolv treatment and excavation” value in assay [7] (final attempt to stain) is recorded as “no staining took place”. Further, the “staining of the surface after first Carisolv treatment and excavation” value in assay [7] (surface judged free of caries by dentist's tactile control) is on record as “very slight staining at the center of the cavity”. Moreover, the “staining of the surface after drilling until no staining visible” value in assay [8] is recorded as “staining always took place after the drilling had been performed”. Further, in assay [1], the “staining of the tooth slice … (Day 4)” value is recorded as “still contained colourants”; the “kind of binding to carious tissue” value is reported as “bind irreversibly”. Besides, the “staining of the tooth slice … (Day 4)” value in assay [1] (listed as Alexa Fluor 594®) was “staining”.

The values above are taken from US9642780B2, “Detection and removal of carious dentin tissue” (RLS Global AB, priority 2011, dated 2017).
